Experimental data from publication PMC8150913, “Chromene-Containing Aromatic Sulfonamides with Carbonic Anhydrase Inhibitory Properties” (International Journal of Molecular Sciences, 2021).

Tests used:
hCA II = biological target: T1, hCA II (Homo sapiens, UniProt P00918); assay: Stopped-flow CA-catalyzed CO2 hydration inhibition assay; assay type: biochemical; conditions: for Ki: stopped flow technique, mean from three different assays, recombinant enzyme, pH 7.4
T1 construct: made in house
Description: (§1) An Applied Photophysics stopped-flow instrument was used for assaying the CA catalyzed CO2 hydration activity. Phenol red (at a concentration of 0.2 mM) was used as an indicator, working at the absorbance maximum of 557 nm, with 20 mM Hepes (pH 7.4) as a buffer, and 20 mM Na2SO4 (for maintaining constant ionic strength), following the initial rates of the CA-catalyzed CO2 hydration reaction for a period of 10–100 s. The CO2 concentrations ranged from 1.7 to 17 mM for the determination of the kinetic parameters and inhibition constants. […] However, the background activity from the uncatalyzed reaction is always subtracted when IC50 values are obtained by using the data analysis software for the stopped flow instrument. […] For each inhibitor, at least six traces of the initial 5–10% of the reaction were used for determining the initial velocity. The uncatalyzed rates were determined in the same manner and subtracted from the total observed rates. Stock solutions of the inhibitor (0.1 mM) were prepared in distilled, deionized water, and dilutions up to 0.01 nM were done thereafter with the assay buffer. Inhibitor and enzyme solutions were preincubated together for 15 min at room temperature prior to the assay, allowing the formation of the E–I complex. The inhibition constants were obtained by non-linear least-squares methods using PRISM 3 and the Cheng-Prusoff equation as reported earlier, which represent the mean from at least three different determinations. All CA isoforms were recombinant proteins obtained in house, as reported earlier.

hCA XII = biological target: T2, hCA XII (Homo sapiens, UniProt O43570); assay: as above; assay type: biochemical; conditions: stopped flow technique, mean from three different assays, recombinant enzyme, pH 7.4
T2 construct: made in house
T2 sequence (O43570 25-354): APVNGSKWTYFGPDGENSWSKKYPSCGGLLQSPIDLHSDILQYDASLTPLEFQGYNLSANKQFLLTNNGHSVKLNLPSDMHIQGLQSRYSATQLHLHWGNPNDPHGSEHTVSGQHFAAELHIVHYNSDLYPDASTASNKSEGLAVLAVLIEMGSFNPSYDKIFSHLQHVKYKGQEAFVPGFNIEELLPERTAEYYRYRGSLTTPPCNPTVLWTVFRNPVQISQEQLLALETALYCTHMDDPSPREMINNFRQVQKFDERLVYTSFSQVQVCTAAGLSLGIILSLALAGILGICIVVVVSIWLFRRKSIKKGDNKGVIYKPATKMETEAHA
Description: as §1

hCA IX = biological target: T3, hCA IX (Homo sapiens, UniProt Q16790); assay: as above; assay type: biochemical; conditions: stopped flow technique, mean from three different assays, recombinant enzyme, pH 7.4
T3 construct: made in house
Description: as §1

hCA I = biological target: T4, hCA I (Homo sapiens, UniProt P00915); assay: as above; assay type: biochemical; conditions: stopped flow technique, mean from three different assays, recombinant enzyme, pH 7.4
T4 construct: made in house
T4 sequence (P00915 whole entry): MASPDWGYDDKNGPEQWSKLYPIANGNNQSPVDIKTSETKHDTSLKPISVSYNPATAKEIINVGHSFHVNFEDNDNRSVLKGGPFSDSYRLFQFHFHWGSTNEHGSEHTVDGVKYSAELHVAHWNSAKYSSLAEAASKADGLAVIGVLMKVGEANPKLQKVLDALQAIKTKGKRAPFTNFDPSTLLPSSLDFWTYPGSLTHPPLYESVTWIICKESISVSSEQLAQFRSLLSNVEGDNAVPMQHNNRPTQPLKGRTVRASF
Description: as §1

melting point | Ki (hCA II) | Ki (hCA XII) | Ki (hCA IX) | Ki (hCA I) | selectivity index (SI) hCA II compared to hCA I (hCA II; ratio of Ki values) | selectivity index (SI) hCA II compared to hCA XII (hCA II; ratio of Ki values) | SMILES
296 to 298 °C | 0.0351 ± 0.0033 µM | 0.0201 ± 0.0017 µM | 0.0166 ± 0.0015 µM | 0.525 ± 0.0444 µM | – | – | NS(=O)(=O)c1ccc(NC(=O)c2cc(=O)c3ccccc3o2)cc1 [5a, 4-Oxo-N-(4-sulfamoylphenyl)-4H-chromene-2-carboxamide]
307 to 308 °C | 0.0959 ± 0.008 µM | 0.0648 ± 0.0061 µM | 0.077 ± 0.0065 µM | 5.31 ± 0.272 µM | – | – | Cc1ccc2oc(C(=O)Nc3ccc(S(N)(=O)=O)cc3)cc(=O)c2c1 [5b, 6-Methyl-4-oxo-N-(4-sulfamoylphenyl)-4H-chromene-2-carboxamide]
309 to 311 °C | 0.0395 ± 0.0032 µM | 0.0508 ± 0.0043 µM | 0.0634 ± 0.0063 µM | 3.56 ± 0.228 µM | – | – | Cc1ccc2c(=O)cc(C(=O)Nc3ccc(S(N)(=O)=O)cc3)oc2c1 [5c, 7-Methyl-4-oxo-N-(4-sulfamoylphenyl)-4H-chromene-2-carboxamide]
297 to 299 °C | – | – | – | – | – | – | CCc1ccc2oc(C(=O)Nc3ccc(S(N)(=O)=O)cc3)cc(=O)c2c1 [5d, 6-Ethyl-4-oxo-N-(4-sulfamoylphenyl)-4H-chromene-2-carboxamide]
310 to 312 °C | 0.311 ± 0.0283 µM | 0.619 ± 0.0367 µM | 0.299 ± 0.0184 µM | 2.89 ± 0.161 µM | – | – | Cc1cc2oc(C(=O)Nc3ccc(S(N)(=O)=O)cc3)cc(=O)c2cc1C [5e, 6,7-Dimethyl-4-oxo-N-(4-sulfamoylphenyl)-4H-chromene-2-carboxamide]
328 to 330 °C | 0.0093 ± 0.0005 µM | 0.0763 ± 0.006 µM | 0.0195 ± 0.0016 µM | 0.341 ± 0.0296 µM | – | – | Cc1ccc2c(=O)cc(C(=O)Nc3ccc(S(N)(=O)=O)cc3)oc2c1C [5f, 7,8-Dimethyl-4-oxo-N-(4-sulfamoylphenyl)-4H-chromene-2-carboxamide]
304 to 306 °C | 0.0614 ± 0.0044 µM | 0.0464 ± 0.0044 µM | 0.0547 ± 0.005 µM | 0.681 ± 0.0406 µM | – | – | Cc1cc(C)c2c(=O)cc(C(=O)Nc3ccc(S(N)(=O)=O)cc3)oc2c1 [5g, 5,7-Dimethyl-4-oxo-N-(4-sulfamoylphenyl)-4H-chromene-2-carboxamide]
309 to 311 °C | 0.0466 ± 0.0029 µM | 0.0268 ± 0.0014 µM | 0.0225 ± 0.0019 µM | 0.505 ± 0.027 µM | – | – | Cc1cc(C)c2oc(C(=O)Nc3ccc(S(N)(=O)=O)cc3)cc(=O)c2c1 [5h, 6,8-Dimethyl-4-oxo-N-(4-sulfamoylphenyl)-4H-chromene-2-carboxamide]
296 to 298 °C | 0.0662 ± 0.0058 µM | 0.425 ± 0.041 µM | 0.051 ± 0.0048 µM | 2.7 ± 0.265 µM | – | – | NS(=O)(=O)c1ccc(NC(=O)c2cc(=O)c3cc(Cl)ccc3o2)cc1 [5i, 6-Chloro-4-oxo-N-(4-sulfamoylphenyl)-4H-chromene-2-carboxamide]
305 to 307 °C | 0.901 ± 0.0754 µM | 0.155 ± 0.0101 µM | 0.516 ± 0.0372 µM | 0.58 ± 0.0505 µM | – | – | Cc1cc2oc(C(=O)Nc3ccc(S(N)(=O)=O)cc3)cc(=O)c2cc1Cl [5j, 6-Chloro-7-methyl-4-oxo-N-(4-sulfamoylphenyl)-4H-chromene-2-carboxamide]
284 to 286 °C | 0.219 ± 0.0118 µM | 0.034 ± 0.0022 µM | 0.855 ± 0.0492 µM | 0.628 ± 0.0355 µM | – | – | NS(=O)(=O)c1ccc(CNC(=O)c2cc(=O)c3ccccc3o2)cc1 [6a, 4-Oxo-N-(4-sulfamoylbenzyl)-4H-chromene-2-carboxamide]
293 to 295 °C | 0.0817 ± 0.0042 µM | 0.32 ± 0.0232 µM | 2.04 ± 0.189 µM | 0.612 ± 0.0495 µM | – | – | Cc1ccc2oc(C(=O)NCc3ccc(S(N)(=O)=O)cc3)cc(=O)c2c1 [6b, 6-Methyl-4-oxo-N-(4-sulfamoylbenzyl)-4H-chromene-2-carboxamide]
299 to 301 °C | 0.679 ± 0.045 µM | 0.0594 ± 0.005 µM | 3.28 ± 0.302 µM | 2.65 ± 0.227 µM | – | – | NS(=O)(=O)c1ccc(CNC(=O)c2cc(=O)c3cc(Cl)ccc3o2)cc1 [6c, 6-Chloro-4-oxo-N-(4-sulfamoylbenzyl)-4H-chromene-2-carboxamide]
248 to 250 °C | 0.0166 ± 0.0012 µM | 0.212 ± 0.0137 µM | 0.081 ± 0.0077 µM | 0.322 ± 0.0279 µM | – | – | NS(=O)(=O)c1ccc(CCNC(=O)c2cc(=O)c3ccccc3o2)cc1 [6d, 4-Oxo-N-(4-sulfamoylphenethyl)-4H-chromene-2-carboxamide]
257 to 259 °C | 0.0364 ± 0.0021 µM | 0.439 ± 0.0322 µM | 0.0727 ± 0.0043 µM | 0.247 ± 0.0243 µM | – | – | Cc1ccc2oc(C(=O)NCCc3ccc(S(N)(=O)=O)cc3)cc(=O)c2c1 [6e, 6-Methyl-4-oxo-N-(4-sulfamoylphenethyl)-4H-chromene-2-carboxamide]
253 to 255 °C | 0.0075 ± 0.0005 µM | 0.337 ± 0.0274 µM | 0.0648 ± 0.0034 µM | 0.334 ± 0.0175 µM | 44.47 | 44.97 | Cc1ccc2c(=O)cc(C(=O)NCCc3ccc(S(N)(=O)=O)cc3)oc2c1 [6f, 7-Methyl-4-oxo-N-(4-sulfamoylphenethyl)-4H-chromene-2-carboxamide]
257 to 259 °C | 0.28 ± 0.0155 µM | 0.148 ± 0.0081 µM | 0.183 ± 0.0161 µM | 0.971 ± 0.0824 µM | – | – | CCc1ccc2oc(C(=O)NCCc3ccc(S(N)(=O)=O)cc3)cc(=O)c2c1 [6g, 6-Ethyl-4-oxo-N-(4-sulfamoylphenethyl)-4H-chromene-2-carboxamide]
282 to 284 °C | 0.0512 ± 0.0036 µM | 0.0226 ± 0.0015 µM | 0.0514 ± 0.0045 µM | 0.547 ± 0.0392 µM | – | – | Cc1cc2oc(C(=O)NCCc3ccc(S(N)(=O)=O)cc3)cc(=O)c2cc1C [6h, 6,7-Dimethyl-4-oxo-N-(4-sulfamoylphenethyl)-4H-chromene-2-carboxamide]
280 to 282 °C | 0.0392 ± 0.0037 µM | 0.132 ± 0.011 µM | 0.0845 ± 0.0043 µM | 0.214 ± 0.0159 µM | – | – | Cc1ccc2c(=O)cc(C(=O)NCCc3ccc(S(N)(=O)=O)cc3)oc2c1C [6i, 7,8-Dimethyl-4-oxo-N-(4-sulfamoylphenethyl)-4H-chromene-2-carboxamide]
283 to 285 °C | 0.143 ± 0.0128 µM | 0.0314 ± 0.0026 µM | 0.0911 ± 0.0089 µM | 4.41 ± 0.347 µM | – | – | Cc1cc(C)c2oc(C(=O)NCCc3ccc(S(N)(=O)=O)cc3)cc(=O)c2c1 [6j, 6,8-Dimethyl-4-oxo-N-(4-sulfamoylphenethyl)-4H-chromene-2-carboxamide]
285 to 287 °C | 0.0916 ± 0.007 µM | 0.0414 ± 0.0034 µM | 1.92 ± 0.146 µM | 0.927 ± 0.0689 µM | – | – | NS(=O)(=O)c1ccc(CCNC(=O)c2cc(=O)c3cc(Cl)ccc3o2)cc1 [6k, 6-Chloro-4-oxo-N-(4-sulfamoylphenethyl)-4H-chromene-2-carboxamide]
